Series [1] deals with T1, OATP1B1 (Homo sapiens, UniProt Q9Y6L6).
T1 construct: expressed in transfected cells; host or cells: MDCK-II cells
T1 sequence (Q9Y6L6 1-691): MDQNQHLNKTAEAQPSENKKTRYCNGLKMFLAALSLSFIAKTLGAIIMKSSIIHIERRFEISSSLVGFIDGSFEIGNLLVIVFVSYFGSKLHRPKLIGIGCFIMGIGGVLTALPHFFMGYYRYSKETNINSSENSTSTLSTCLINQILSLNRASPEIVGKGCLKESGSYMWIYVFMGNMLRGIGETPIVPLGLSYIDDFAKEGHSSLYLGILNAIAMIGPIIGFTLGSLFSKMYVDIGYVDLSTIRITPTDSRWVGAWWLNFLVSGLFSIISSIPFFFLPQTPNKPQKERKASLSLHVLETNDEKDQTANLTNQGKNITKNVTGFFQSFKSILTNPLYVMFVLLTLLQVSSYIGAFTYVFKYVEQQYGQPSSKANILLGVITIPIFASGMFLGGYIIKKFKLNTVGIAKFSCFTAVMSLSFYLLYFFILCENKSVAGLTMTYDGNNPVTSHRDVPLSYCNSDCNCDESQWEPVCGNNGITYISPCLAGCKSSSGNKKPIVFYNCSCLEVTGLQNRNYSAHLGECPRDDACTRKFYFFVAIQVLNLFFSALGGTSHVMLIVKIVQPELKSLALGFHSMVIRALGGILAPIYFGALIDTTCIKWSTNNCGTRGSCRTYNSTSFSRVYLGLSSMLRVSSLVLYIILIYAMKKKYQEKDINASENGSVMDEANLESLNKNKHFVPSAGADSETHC
Nature of the series: Transporter mediated assay (substrate/inhibitor), MDCK-II cells. The series is classed as in vitro ADME.
Experimental: (§1) The MDCK-II cells were treated to express the transporter of interest. The transport of each probe substrate was determined by radiometric detection (Fig 1 in S1 File). […] For the uptake assay, the net transporter-mediated uptake-rate (V) of the substrate by each SLC transporter was calculated as follows: Transporter–mediatedupdaterate(pmol/min/cm^2)=(Cellularaccumulationincellsexpressingthetransporter)−(Meancellularaccumulationincontrolcells)/Surfacearea×incubationtime
(§2) Fold of activity and percent inhibition were determined as follows: Foldofactivity=(Meanuptakerate)transporterexpressingcells/(Meanuptakerate)controlcells Percentinhibition=100−100×(Transport‐mediatedupdaterate)withinhibitor/(Transport‐mediatedupdaterate)vehiclecontrol

Series [2] addresses T2, OATP1B3 (Homo sapiens, UniProt Q9NPD5).
T2 construct: expressed in transfected cells; host or cells: MDCK-II cells
T2 sequence (Q9NPD5 1-702): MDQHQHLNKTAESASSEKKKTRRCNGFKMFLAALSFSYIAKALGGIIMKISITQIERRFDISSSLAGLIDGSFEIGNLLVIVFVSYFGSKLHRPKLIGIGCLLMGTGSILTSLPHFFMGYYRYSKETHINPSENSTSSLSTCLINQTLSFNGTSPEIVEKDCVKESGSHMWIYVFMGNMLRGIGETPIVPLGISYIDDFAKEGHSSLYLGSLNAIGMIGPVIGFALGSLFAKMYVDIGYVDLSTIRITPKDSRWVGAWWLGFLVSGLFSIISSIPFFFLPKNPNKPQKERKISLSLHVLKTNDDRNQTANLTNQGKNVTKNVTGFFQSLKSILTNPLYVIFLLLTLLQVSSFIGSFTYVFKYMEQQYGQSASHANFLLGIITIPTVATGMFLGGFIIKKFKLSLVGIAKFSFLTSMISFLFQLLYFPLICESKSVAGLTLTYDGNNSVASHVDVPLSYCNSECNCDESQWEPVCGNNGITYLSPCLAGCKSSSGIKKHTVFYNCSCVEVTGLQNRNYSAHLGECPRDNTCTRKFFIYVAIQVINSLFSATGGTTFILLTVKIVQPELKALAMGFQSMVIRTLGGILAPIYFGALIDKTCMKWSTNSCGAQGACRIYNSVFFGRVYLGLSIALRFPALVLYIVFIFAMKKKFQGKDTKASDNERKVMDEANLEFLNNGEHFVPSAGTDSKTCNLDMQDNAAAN
The description is as above. It is filed as in vitro ADME.
Experimental: as §1, §2

The target in series [3] is T3, CYP1A2 (Homo sapiens, UniProt P05177).
T3 sequence (P05177 1-516): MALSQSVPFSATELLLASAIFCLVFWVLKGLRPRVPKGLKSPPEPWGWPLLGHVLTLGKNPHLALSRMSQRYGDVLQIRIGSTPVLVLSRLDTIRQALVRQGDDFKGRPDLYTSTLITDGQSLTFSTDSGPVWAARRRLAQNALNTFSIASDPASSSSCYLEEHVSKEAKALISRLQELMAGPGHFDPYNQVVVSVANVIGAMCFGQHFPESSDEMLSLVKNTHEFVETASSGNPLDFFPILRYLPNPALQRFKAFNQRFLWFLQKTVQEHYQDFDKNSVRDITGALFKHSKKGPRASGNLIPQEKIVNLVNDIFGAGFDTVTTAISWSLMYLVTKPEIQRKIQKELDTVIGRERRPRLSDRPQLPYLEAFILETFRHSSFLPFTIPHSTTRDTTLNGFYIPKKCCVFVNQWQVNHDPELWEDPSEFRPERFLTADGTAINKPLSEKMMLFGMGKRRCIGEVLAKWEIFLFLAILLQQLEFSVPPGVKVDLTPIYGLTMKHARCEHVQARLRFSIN
Nature of the series: CYP inhibition in human liver microsomes. As to conditions: human liver microsomes.

The target of series [4] is T4, CYP2C8 (Homo sapiens, UniProt P10632).
T4 sequence (P10632 1-490): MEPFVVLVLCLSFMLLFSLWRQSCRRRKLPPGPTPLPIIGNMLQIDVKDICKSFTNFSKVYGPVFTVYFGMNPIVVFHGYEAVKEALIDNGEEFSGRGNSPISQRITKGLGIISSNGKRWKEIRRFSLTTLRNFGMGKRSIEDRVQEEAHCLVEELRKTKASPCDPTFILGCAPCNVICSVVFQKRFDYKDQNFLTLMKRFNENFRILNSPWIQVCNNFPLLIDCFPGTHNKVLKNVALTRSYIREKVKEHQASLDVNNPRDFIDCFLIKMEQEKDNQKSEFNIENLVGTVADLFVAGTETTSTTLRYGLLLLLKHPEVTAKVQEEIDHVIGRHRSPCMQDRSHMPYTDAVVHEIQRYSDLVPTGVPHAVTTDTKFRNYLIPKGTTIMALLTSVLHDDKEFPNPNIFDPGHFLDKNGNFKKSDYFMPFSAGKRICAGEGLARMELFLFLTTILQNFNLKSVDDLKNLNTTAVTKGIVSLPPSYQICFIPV
Put plainly: CYP inhibition in human liver microsomes. As to conditions: human liver microsomes. (In general: Microsomes from liver hold many membrane-bound enzymes, among them those of drug oxidation.)

Structures are written as SMILES.

As usually defined, the inhibition is the drop in the measured response relative to a control, in per cent. The low end stands for a weak effect, the high end for a strong effect. Regarding `CCc1cc(Cl)c(OC)c(N2CCN(CC(O)CCNC(=O)c3cc4ccccc4[nH]3)CC2)c1` (stereo not drawn) [R-VK4-116, N-(4-(4-(3-chloro-5-ethyl-2-methoxyphenyl)piperazin-1-yl)-3-hydroxybutyl)-1H-indole-2-carboxamide], the “fold difference in mean uptake rate (substrate test)” value in series [1] (OATP1B1, 1 μM, transporter cells vs control cells) is given as less than 2 fold. For the same compound, in series [1] (OATP1B1, 0.1% BSA, 10 μM), the “Inhibition (%)” value is on record as “no statistically significant inhibition”. The compound further registered an inhibition at 10 µM in series [1] (human, polarized monolayer of MDCK-II cells expressing OATP1B1, OATP1B1, 0.1% BSA, 10 μM) of 5.5 ± 17.3%. Besides, the “fold difference in mean uptake rate (substrate test)” value in series [2] (OATP1B3, 1 μM, transporter cells vs control cells) is less than 2 fold. Besides, the “Inhibition (%)” value in series [2] (OATP1B3, 0.1% BSA, 10 μM) was “no statistically significant inhibition”. Moreover, 10 µM produced 5.29 ± 10.7% inhibition in series [2] (human, polarized monolayer of MDCK-II cells expressing OATP1B3, OATP1B3, 0.1% BSA, 10 μM). Further, the CYP1A2 inhibition entry in series [3] (up to 100 μM) is on record as “did not inhibit CYP significantly”. Moreover, in series [3] (human, probe phenacetin), the activity at 20 min, 0.1 µM amounted to 93.7 ± 5.5%; the activity at 20 min, 0.3 µM stood at 87.7 ± 2.4%; the activity at 20 min, 1 µM was 89.9 ± 0.9%; the activity at 20 min, 3 µM was found to be 95.7 ± 5.2%. In addition, in series [3] (human, probe phenacetin), the activity at 20 min, 10 µM is 96.3 ± 4.7%; the activity at 20 min, 30 µM turned out to be 88.7 ± 1.9%; the activity at 20 min, 60 µM worked out at 88.2 ± 2.3%; the activity at 20 min, 100 µM came out at 94 ± 5.2%. In addition, the CYP2C8 inhibition result in series [4] (up to 100 μM) is listed as “did not inhibit CYP significantly”. In series [4] (human, probe paclitaxel), this compound had an activity at 20 min, 0.1 µM of 85.9 ± 18.2%; an activity at 20 min, 0.3 µM of 68.2 ± 2.8%; an activity at 20 min, 1 µM of 70.5 ± 7.1%; an activity at 20 min, 3 µM of 95.7 ± 11.2%. In series [4] (human, probe paclitaxel), this compound yielded an activity at 20 min, 10 µM of 89.8 ± 19.7%; an activity at 20 min, 30 µM of 75.8 ± 4.5%; an activity at 20 min, 60 µM of 75.3 ± 6.4%; an activity at 20 min, 100 µM of 80.6 ± 15.2%.

The record behind these values is PMC11649115, “In vitro safety evaluation of dopamine D3R antagonist, R-VK4-116, as a potential medication for the treatment of opioid use disorder” (PLOS ONE, 2024).
